Experimental data taken from ChEMBL document CHEMBL4138126, “Synthesis, antiproliferative, anti-tubulin activity, and docking study of new 1,2,4-triazoles as potential combretastatin analogues” (Eur J Med Chem, 2017).

What was measured:
Format in all cases: functional
HepG2 [1] = test: Induction of apoptosis in human HepG2 cells at cytotoxic IC50 by propidium iodide staining based flow cytometry (reference value: 1.2%)
HepG2 [2] = test: Induction of cell cycle arrest in human HepG2 cells assessed as accumulation at G2 phase at cytotoxic IC50 by propidium iodide staining based flow cytometry (reference value: 7.2%)
HepG2 [3] = test: Induction of cell cycle arrest in human HepG2 cells assessed as accumulation at S phase at cytotoxic IC50 by propidium iodide staining based flow cytometry (reference value: 25.2%)
HepG2 [4] = test: Induction of apoptosis in human HepG2 cells assessed as early apoptotic cells level at 1.41 uM by Annexin V and propidium iodide staining based flow cytometry
HepG2 [5] = test: Induction of apoptosis in human HepG2 cells assessed as late apoptotic cells level at 1.41 uM by Annexin V and propidium iodide staining based flow cytometry
HepG2 [6] = test: Induction of apoptosis in human HepG2 cells assessed as necrotic cells level at 1.41 uM by Annexin V and propidium iodide staining based flow cytometry

Work on `CCOc1ccc(-n2nc(C(=O)NCc3cc(F)cc(F)c3)nc2-c2cc(OC)c(OC)c(OC)c2)cc1` yielded an Activity (HepG2 [1]) of 16.7%, an Activity (HepG2 [2]) of 21.6% and an Activity (HepG2 [3]) of 26.3%. It also gave an Activity (HepG2 [4]) of 21%, an Activity (HepG2 [5]) of 14% and an Activity (HepG2 [6]) of 3%.
